# Results taken from patent US10130611B2, “Use of benzo-heterocycle derivatives for preventing and treating cancer or for inhibiting cancer metastasis” (MEDICINAL BIOCONVERGENCE RESEARCH CENTER, priority 2009, dated 2018).
# Key:
# [1] = biological target: T1, interaction between KRS and laminin receptor (67LR) (Homo sapiens, UniProt Q15046); test: Yeast two hybrid growth assay, LexA-KRS/B42-LR pair; type: cell-based; details: growth inhibition of yeast EGY/SH cells with LexA-KRS/B42-LR vs control, 1 μl of 10 mg/ml compound per well, 6 days, absorbance 540 nm; for inhibition at 10000 µg/mL (stock): read-out: Inhibition rate(%)
# T1 construct: expressed in transfected cells; host or cells: yeast EGY/SH cells
# T1 sequence (Q15046 whole entry): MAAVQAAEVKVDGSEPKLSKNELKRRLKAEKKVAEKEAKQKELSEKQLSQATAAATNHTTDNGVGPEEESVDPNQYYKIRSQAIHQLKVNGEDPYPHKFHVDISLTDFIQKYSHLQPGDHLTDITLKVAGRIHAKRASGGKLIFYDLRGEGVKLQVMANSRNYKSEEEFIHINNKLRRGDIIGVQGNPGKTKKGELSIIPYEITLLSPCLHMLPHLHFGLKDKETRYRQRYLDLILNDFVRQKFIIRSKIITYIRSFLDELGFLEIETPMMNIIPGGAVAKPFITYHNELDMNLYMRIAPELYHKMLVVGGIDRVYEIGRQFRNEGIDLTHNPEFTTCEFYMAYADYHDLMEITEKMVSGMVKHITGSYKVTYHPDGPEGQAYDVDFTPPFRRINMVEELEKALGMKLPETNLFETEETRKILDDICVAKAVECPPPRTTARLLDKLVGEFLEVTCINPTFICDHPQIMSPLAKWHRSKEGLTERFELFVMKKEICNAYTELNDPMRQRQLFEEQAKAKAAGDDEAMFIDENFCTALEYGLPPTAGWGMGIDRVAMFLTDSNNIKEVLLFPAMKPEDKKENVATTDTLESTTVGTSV
# Method: On the compound of the present invention obtained by screening a library of compounds, the extent of inhibition on the interaction between KRS and laminin receptor (67LR) was determined by a yeast two hybrid assay, as described below. KRS, LR, AIMP2, AIMP3 and MRS were cloned at LexA vector (clontech) and B42 vector (clontech) each so as to produce required vectors. From among the vectors, LexA-KRS vector and B42-LR vector were co-transformed into yeast EGY/SH cells, and then the yeast cells were diluted to an absorbance (540 nm wavelength) of 0.2 in galactose medium not containing uracil (Ura), histidine (His), tryptophane (Trp) and leucine (Leu), and placed in an amount of 200 u in a 96 well plate. 1 μl of each compound at a concentration of 10 mg/ml was placed in each well, incubated for 6 days, and the absorbance was measured at 540 nm. […] The inhibitory specificity of the selected compound was tested by using two different interaction pairs such as LexA-KRS/B42-AIMP2 and LexA-MRS/B42-AIMP3.
# In order to determine if the compound of the present invention controls the interaction between KRS and laminin receptor, the present inventors determined the interaction between KRS and 67LR through treatment of the compound of the present invention.
# A549 cells = test: Laminin-dependent membrane translocation of KRS and 67LR with kinase inhibitors; type: cell-based, human; details: inhibitor 3 hours then laminin 1 hour
# Method: (§1) In FIG. 7, A549 cells were treated with laminin (10 μg/ml), and the levels of 67LR, 37LRP and KRS were determined by western blotting at the indicated times. Hsp90 and cadherin (Cad) were used as markers for cytoplasm and membrane, respectively. In FIG. 8, A549 cells untreated or treated with laminin for 1 hour were subjected to immunofluorescence staining with anti-67LR (MLuC5, Santacruz, sc-59732) (red) and KRS antibodies (green). In FIG. 9, A549 cells were treated with U73122 (U), staurosporin (ST) and LY294002 (LY) that inhibit PLC-gamma, PKC and PI3K, respectively, for 3 hours, and then treated with laminin for 1 hour. Then, it was determined how these kinase inhibitors would affect the cytoplasm and membrane of 67LR and KRS. In FIG. 10, A549 cells were transfected with Myc-KRS, and incubated for 24 hours. Then, the cells were treated with the indicated drugs and then with laminin as above. Myc-KRS was immunoprecipitated, and immunoblotted with anti-p-Thr, -Ser, and -Tyr antibodies. In FIG. 11, A549 cells were transfected with Myc-KRS, and cultured for 24 hours. […] Myc-KRS was immunoprecipitated, and co-precipitation of 67LR was determined by western blotting. […] EPRS (glutamyl-prolyl-tRNA synthetase) was immunoprecipitated with its specific antibody (AbCam), and co-precipitation of KRS was determined by western blotting (upper). […]
# KRS = test: Laminin-induced phosphorylation of KRS (immunoblot p-Thr, -Ser, -Tyr); type: cell-based, human; details: A549 cells transfected with Myc-KRS, inhibitor then laminin
# Method: as §1
inhibition at 10000 µg/mL (stock) [1] [%],Compound,other results
51.8,"Clc1ccc2oc(Nc3ccccc3)nc2c1 [Compound of formula 4, (5-Chloro-benzooxazol-2-yl)-phenyl-amine]",
52.8,"Clc1ccc2oc(Nc3ccc(Cl)c(Cl)c3)nc2c1 [Compound of formula 6, (5-Chloro-benzooxazol-2-yl)-(3,4-dichloro-phenyl)-amine]",
47.6,"O=[N+]([O-])c1ccc2oc(Nc3ccc(/N=N/c4ccccc4)cc3)nc2c1 [Compound of formula 7, (5-Nitro-benzooxazol-2-yl)-(4-phenylazo-phenyl)-amine]",
47.5,"CCc1ccc(Nc2nc3cc(Cl)ccc3o2)cc1 [Compound of formula 5, (5-Chloro-benzooxazol-2-yl)-(4-ethyl-phenyl)-amine]",
60,"COc1ccc2oc(NC(=O)c3ccccc3)nc2c1 [Compound of formula 10, N-(5-Methoxy-benzooxazol-2-yl)-benzamide]",
49.1,"Cc1ccc2oc(NC(=O)c3ccccc3)nc2c1 [Compound of formula 11, N-(5-Methyl-benzooxazol-2-yl)-benzamide]",
36.9,"O=C(Nc1nc2cc([N+](=O)[O-])ccc2o1)c1ccccc1 [Compound of formula 9, N-(5-Nitro-benzooxazol-2-yl)-benzamide]",
47.3,"O=C(Nc1nc2ccccc2o1)c1ccccc1 [Compound of formula 8, N-Benzooxazol-2-yl-benzamide]",

# Continued, compound first:
Compound,inhibition at 10000 µg/mL (stock) [1] [%],other results
"O=C(Nc1nc2ccc([N+](=O)[O-])cc2s1)c1ccc(C(F)(F)F)cc1 [Compound of formula 12, N-(6-Nitro-benzothiazol-2-yl)-4-trifluoromethyl-benzamide]",52.5,
"COc1ccc2oc(NC(=O)c3ccccc3)nc2c1 [Compound of formula 3, N-(5-Methoxy-benzooxazol-2-yl)-benzamide]",,Inhibition rate(%) [1]: 59.98%
"Fc1ccc(CNCc2c[nH]c3ccc(F)cc23)c(Cl)c1 [Compound of formula 17, (2-Chloro-4-fluoro-benzyl)-(5-fluoro-1H-indol-3-ylmethyl)-amine]",36.5,
CN[C@@H]1C[C@H]2O[C@@](C)([C@@H]1OC)n1c3ccccc3c3c4c(c5c6ccccc6n2c5c31)C(=O)NC4 [staurosporin],,Laminin-dependent increase of KRS and 67LR in the membrane fraction (A549 cells): larger laminin-dependent increase of 67LR than those in the control group; laminin-induced phosphorylated KRS at threonine and serine (KRS): did not have any effect
"Cc1ccc2oc(-c3ccccc3OCC(=O)O)nc2c1 [Compound of formula 13, [2-(5-Methyl-benzooxazol-2-yl)-phenoxy]-acetic acid]",55.2,
"Cc1cc(C)c(-c2nc3cc(N)ccc3o2)c(C)c1 [Compound of formula 14, 2-(2,4,6-Trimethyl-phenyl)-benzooxazol-5-ylamine]",49.3,
COc1ccc2c(c1)CC[C@@H]1[C@@H]2CC[C@]2(C)[C@@H](NCCCCCCN3C(=O)C=CC3=O)CC[C@@H]12 [U73122],,Laminin-dependent increase of KRS and 67LR in the membrane fraction (A549 cells): larger laminin-dependent increase of 67LR than those in the control group
"COc1cccc(OC)c1-c1nc2ccccc2s1 [Compound of formula 16, 2-(2,6-Dimethoxy-phenyl)-benzothiazole]",47.6,
"COc1ccc2nc(NC(=O)c3ccccc3)oc2c1 [Compound of formula 2, N-(6-Methoxy-benzooxazol-2-yl)-benzamide]",54.2,
